Experimental data reported in EP4722219A1 (Gan & Lee Pharmaceuticals Co., Ltd., priority 2023, dated 2024).

Key:
Format in all cases: cell-based
[1] = biological target: T1, ERα (Homo sapiens, UniProt P03372); assay: ERα degradation in T-47D cells (Western blot); settings: 4 hours
T1 sequence (P03372 1-595): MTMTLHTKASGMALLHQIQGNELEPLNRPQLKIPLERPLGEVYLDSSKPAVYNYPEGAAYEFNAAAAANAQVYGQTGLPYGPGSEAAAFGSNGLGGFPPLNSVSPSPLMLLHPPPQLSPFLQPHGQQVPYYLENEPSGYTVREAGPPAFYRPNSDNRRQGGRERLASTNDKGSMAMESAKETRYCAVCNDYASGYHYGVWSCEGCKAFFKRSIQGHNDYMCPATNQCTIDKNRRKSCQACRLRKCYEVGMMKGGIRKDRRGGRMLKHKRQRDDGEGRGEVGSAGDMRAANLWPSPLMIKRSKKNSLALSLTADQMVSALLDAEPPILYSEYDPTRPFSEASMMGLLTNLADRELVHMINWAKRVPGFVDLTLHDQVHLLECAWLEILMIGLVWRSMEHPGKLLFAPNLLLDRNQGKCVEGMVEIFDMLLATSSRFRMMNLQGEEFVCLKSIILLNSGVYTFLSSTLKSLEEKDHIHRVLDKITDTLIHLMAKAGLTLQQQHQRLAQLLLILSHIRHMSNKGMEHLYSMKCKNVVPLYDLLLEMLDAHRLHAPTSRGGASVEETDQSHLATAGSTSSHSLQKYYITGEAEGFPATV
How it was run: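 ERα was quantified by immunoblot of RIPA lysates (20 µg total protein), normalised to an internal reference band, and degradation was expressed against control. Lysates came from T-47D cells plated at 3×10^5 cells/well and dosed 4 hours at 37°C with compound at 0.15-1000 nM final concentration.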

[2] = biological target: T1, ERα; assay: ERα degradation in MCF-7 cells (Western blot); set-up: host or cells: MCF-7; settings: 4 hours
How it was run: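 ERα degradation was quantified by immunoblot densitometry, ERα signal divided by internal-reference signal and compared with control. Compounds were applied to MCF-7 cells for 4 hours at final concentrations of 0.15–1000 nM, with 20 µg total protein loaded per lane.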

[3] = tested on: MCF-7 cells; assay: Inhibition of cell proliferation in MCF-7 cells (CCK-8); settings: Homo sapiens, MCF7, 144 h, MCF-7 cell proliferation, 6 days treatment
How it was run: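 IC50 from CCK-8 viability-based inhibition after 6-day treatment of MCF-7 cells (800 cells/well, 10% FBS DMEM, 37 °C, 5% CO2) with serially varied compound concentrations.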

[4] = tested on: T-47D cells; assay: Inhibition of cell proliferation in T-47D cells (CCK-8); settings: Homo sapiens, T47D, 144 h, 6 days treatment, CCK-8 cell viability
How it was run: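 Viability by CCK-8 after a 6-day, 37 °C/5% CO2 exposure of T-47D cells (3,000/well, RPMI-1640 + 10% FBS) to graded PROTAC concentrations. Inhibition rates gave the IC50.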

SMILES | Degradation rate of ERα in T-47D cells (%) ([1]; 1nM) | Degradation rate of ERα in T-47D cells (%) ([1]; 10nM) | Degradation rate of ERα in MCF-7 cells (%) ([2]; 1nM) | Degradation rate of ERα in MCF-7 cells (%) ([2]; 10nM) | IC50 [3] [nM] | IC50 [4] [nM]
Cn1c(=O)n(C2CCC(=O)NC2=O)c2cc3c(cc21)C1(CCN(CC2CCN(c4ccc([C@@H]5c6ccc(O)cc6CC[C@@H]5c5ccccc5)cc4)CC2)CC1)CO3 (stereo partly drawn) [ER-P-24, 3-(1'-((1-(4-((1R,2S)-6-hydroxy-2-phenyl-1,2,3,4-tetrahydronaphthalen-1-yl)phenyl)piperidin-4-yl)methyl)-1-methyl-2-oxo-1,2-dihydro-3H,6H-spiro[benzofuro[5,6-d]imidazole-7,4'-piperidin]-3-yl)piperidine-2,6-dione] | -16 | -49 | -68 | -39 | 1070 | 19.2
C[C@@H]1Cc2cc(O)ccc2C(c2c(F)cc(N3CCC4(CC3)CC(N3CC5(CCC6(CC5)COc5c6ccc6c5CN(C5CCC(=O)NC5=O)C6=O)C3)C4)cc2F)N1CC(F)F (stereo partly drawn) [ER-P-28, 3-(1-(7-(4-((3R)-2-(2,2-difluoroethyl)-6-hydroxy-3-methyl-1,2,3,4-tetrahydroisoquinolin-1-yl)-3,5-difluorophenyl)-7-azaspiro[3.5]nonan-2-yl)-6"-oxo-6",8"-dihydro-2"H,7"H-dispiro[azetidine-3,1'-cyclohexane-4',3"-furo[2,3-e]isoindol]-7"-yl)piperidine-2,6-dione] | 41 | 59 | 38 | 63 | < 0.256 | 1.56
C[C@@H]1Cc2cc(O)ccc2C(c2c(F)cc(N3CCC4(CCC(N5CCC6(CC5)COc5c6ccc6c5n(C)c(=O)n6C5CCC(=O)NC5=O)CC4)CC3)cc2F)N1CC(F)F (stereo partly drawn) [ER-P-29, 3-(1'-(3-(4-((3R)-2-(2,2-difluoroethyl)-6-hydroxy-3-methyl-1,2,3,4-tetrahydroisoquinolin-1-yl)-3,5-difluorophenyl)-3-azaspiro[5.5]undecan-9-yl)-1-methyl-2-oxo-1,2-dihydro-3H,7H-spiro[benzofuro[6,7-d]imidazole-6,4'-piperidin]-3-yl)piperidine-2,6-dione] | 53 | 41 | 54 | 25 | 140 | 0.92
C[C@@H]1Cc2cc(O)ccc2C(c2c(F)cc(N3CCC(C(=O)N4CCC(N5CCC6(CC5)COc5c6ccc6c5n(C)c(=O)n6C5CCC(=O)NC5=O)CC4)CC3)cc2F)N1CC(F)F (stereo partly drawn) [ER-P-30, 3-(1'-(1-(1-(4-((3R)-2-(2,2-difluoroethyl)-6-hydroxy-3-methyl-1,2,3,4-tetrahydroisoquinolin-1-yl)-3,5-difluorophenyl)piperidine-4-carbonyl)piperidin-4-yl)-1-methyl-2-oxo-1,2-dihydro-3H,7H-spiro[benzofuro[6,7-d]imidazole-6,4'-piperidin]-3-yl)piperidine-2,6-dione] | 47 | 17 | 42 | 14 | 4960 | 2.42
O=C1CCC(Nc2ccc3c(c2)OCC32CCN(C[C@H]3CC[C@@H](OC4CCN(c5ccc([C@@H]6c7ccc(O)cc7CC[C@@H]6c6ccccc6)cc5)CC4)CC3)CC2)C(=O)N1 (stereo partly drawn) [ER-P-31, 3-((1'-(((1S,4s)-4-((1-(4-((1R,2S)-6-hydroxy-2-phenyl-1,2,3,4-tetrahydronaphthalen-1-yl)phenyl)piperidin-4-yl)oxy)cyclohexyl)methyl)-2H-spiro[benzofuran-3,4'-piperidin]-6-yl)amino)piperidine-2,6-dione] | 26 | 79 | 29 | 71 | 54.8 | 2.71

More lines, now with the values ahead:

Degradation rate of ERα in T-47D cells (%) ([1]; 1nM) | Degradation rate of ERα in T-47D cells (%) ([1]; 10nM) | Degradation rate of ERα in MCF-7 cells (%) ([2]; 1nM) | Degradation rate of ERα in MCF-7 cells (%) ([2]; 10nM) | IC50 [3] [nM] | IC50 [4] [nM] | SMILES
40 | 67 | 26 | 48 | < 0.256 | 1.61 | O=C1CCC(N2Cc3c(ccc4c3OCC43CCC4(CC3)CN(CC3CCN(c5ccc([C@@H]6c7ccc(O)cc7CC[C@@H]6c6ccccc6)cc5)CC3)C4)C2=O)C(=O)N1 (stereo partly drawn) [ER-P-23, 3-(1-((1-(4-((1R,2S)-6-hydroxy-2-phenyl-1,2,3,4-tetrahydronaphthalen-1-yl)phenyl)piperidin-4-yl)methyl)-6"-oxo-6",8"-dihydro-2"H,7"H-di(pyridyl)furan[azetidine-3,1'-cyclohexane-4',3"-furo[2,3-e]isoindol]-7"-yl)piperidine-2,6-dione]
77 | 71 | 49 | 53 | 1.26 | 0.84 | Cn1c(=O)n(C2CCC(=O)NC2=O)c2ccc3c(c21)OCC31CCN(C(=O)C2CN(CC3CCN(c4ccc([C@@H]5c6ccc(O)cc6CC[C@@H]5c5ccccc5)cc4)CC3)C2)CC1 (stereo partly drawn) [ER-P-25, 3-(1'-(1-((1-(4-((1R,2S)-6-hydroxy-2-phenyl-1,2,3,4-tetrahydronaphthalen-1-yl)phenyl)piperidin-4-yl)methyl)azetidine-3-carbonyl)-1-methyl-2-oxo-1,2-dihydro-3H,7H-spiro[benzofuro[6,7-d]imidazole-6,4'-piperidin]-3-yl)piperidine-2,6-dione]
58 | 70 | 43 | 40 | 125 | 0.51 | Cn1c(=O)n(C2CCC(=O)NC2=O)c2cc3c(cc21)C1(CCN(C(=O)C2CN(CC4CCN(c5ccc([C@@H]6c7ccc(O)cc7CC[C@@H]6c6ccccc6)cc5)CC4)C2)CC1)CO3 (stereo partly drawn) [ER-P-26]
20 | 53 | 26 | 62 | < 0.256 | 1.34 | C[C@@H]1Cc2cc(O)ccc2C(c2c(F)cc(N3CCC4(CC3)CC(N3CCC5(CC3)CCC3(CC5)COc5c3ccc3c5CN(C5CCC(=O)NC5=O)C3=O)C4)cc2F)N1CC(F)F (stereo partly drawn) [ER-P-27, 3-(1"-(7-(4-((3R)-2-(2,2-difluoroethyl)-6-hydroxy-3-methyl-1,2,3,4-tetrahydroisoquinolin-1-yl)-3,5-difluorophenyl)-7-azaspiro[3.5]nonan-2-yl)-6-oxo-6,8-dihydro-2H,7H-dispiro[furo[2,3-e]isoindole-3,1'-cyclohexane-4',4"-piperidin]-7-yl)piperidine-2,6-dione]
